From patent publication US10035778B2, “Meta-azacyclic amino benzoic acid derivatives as pan integrin antagonists” (Saint Louis University, priority 2015, dated 2018)

Columns and labels:
Assay type in all cases: binding
[1] = biological target: Recombinant human integrin αvβ8 (Homo sapiens (Human), UniProt P06756+P26012); experiment: Solid Phase Receptor Assay (SPRA) for αvβ8 function; conditions: LAP-coated plate
Method: 6. Solid Phase Receptor Assay (SPRA) for αvβ8 Function
Recombinant human LAP protein (R&D Systems, Inc, 246-LP) diluted to 0.5 μg/mL in TBS+ buffer (25 mM Tris pH 7.4, 137 mM NaCl, 2.7 mM KCl, 1 mM CaCl2, 1 mM MgCl2, 1 mM MnCl2) was added to wells (50 μl/well) of a 96-well half-well transparent microtiter plate (Greiner 675061), and incubated overnight at 4° C. Wells were washed 3 times with 150 μL TBS+ and 150 μL of blocking buffer (TBS+ with 1% bovine serum albumin, Sigma A7906) were added. The plate was incubated for 1 hr at 37° C. and then washed 3× with TBS+. Recombinant human integrin αvβ8 (R&D Systems, 4135-AV) was diluted to 0.1 μg/mL in TBS+/0.1% bovine serum albumin. Compounds were diluted 1:100 into the integrin solution and 50 μL added to empty wells of the washed LAP-coated plate according to a standard template with each sample repeated in triplicate. After incubation for two hours at room temperature, the plate was washed 3× with 150 μL of TBS+. To each well, 50 μL of biotinylated anti-αv antibody (R&D Systems, BAF1219) at 1 μg/mL in TBS+/0.1% BSA were added and the plate was covered and incubated for 1 hr at room temperature. After washing the plate 3× with 150 μL of TBS+ buffer, 50 μL of streptavidin-conjugated horseradish peroxidase (R&D Systems, DY998) diluted in TBS+ blocking buffer were added to the wells and the plate incubated for 20 min at room temperature. The plate was washed 3× with TBS+ followed by 50 μL of TMB substrate (Sigma T4444) added to each well and the plate incubated for 20 min at room temperature. Plates were read by colorimetric detection at 650 nm wavelength using a Tecan Safire II plate reader. Concentration-response curves were constructed by non-linear regression (best fit) analysis, and IC50 values were calculated for each compound.

[2] = biological target: Recombinant human integrin αvβ5 (Homo sapiens (Human), UniProt P06756+P18084); experiment: Solid Phase Receptor Assay (SPRA) for αvβ5 function; conditions: vitronectin-coated plate
Chain of Recombinant human integrin αvβ5 (P06756 31-992): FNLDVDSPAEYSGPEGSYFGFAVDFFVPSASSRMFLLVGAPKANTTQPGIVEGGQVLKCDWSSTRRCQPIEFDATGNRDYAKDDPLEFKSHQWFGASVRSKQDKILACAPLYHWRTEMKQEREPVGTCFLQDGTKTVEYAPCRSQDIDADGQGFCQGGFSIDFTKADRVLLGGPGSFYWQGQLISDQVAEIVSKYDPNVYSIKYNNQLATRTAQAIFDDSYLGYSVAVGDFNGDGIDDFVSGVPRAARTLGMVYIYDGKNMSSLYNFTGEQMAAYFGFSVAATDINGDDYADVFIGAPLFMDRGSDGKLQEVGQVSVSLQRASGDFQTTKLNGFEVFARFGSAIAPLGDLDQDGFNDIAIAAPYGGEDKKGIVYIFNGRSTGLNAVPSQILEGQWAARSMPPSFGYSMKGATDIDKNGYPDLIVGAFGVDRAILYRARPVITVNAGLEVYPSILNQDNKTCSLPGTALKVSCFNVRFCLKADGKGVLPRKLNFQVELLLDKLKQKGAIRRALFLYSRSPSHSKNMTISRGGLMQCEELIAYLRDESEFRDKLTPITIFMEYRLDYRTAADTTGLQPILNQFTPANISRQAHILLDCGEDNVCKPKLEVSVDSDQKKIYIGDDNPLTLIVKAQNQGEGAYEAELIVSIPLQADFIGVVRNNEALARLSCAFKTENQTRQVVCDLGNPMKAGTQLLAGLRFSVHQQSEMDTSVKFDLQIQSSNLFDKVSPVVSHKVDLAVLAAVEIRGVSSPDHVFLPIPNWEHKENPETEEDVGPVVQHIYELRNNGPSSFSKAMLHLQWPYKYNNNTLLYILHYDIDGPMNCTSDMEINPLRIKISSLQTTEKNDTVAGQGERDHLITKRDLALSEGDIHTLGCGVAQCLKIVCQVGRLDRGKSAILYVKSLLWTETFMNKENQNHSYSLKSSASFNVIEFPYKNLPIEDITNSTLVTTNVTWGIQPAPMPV
Chain of Recombinant human integrin αvβ5 (P18084 24-719): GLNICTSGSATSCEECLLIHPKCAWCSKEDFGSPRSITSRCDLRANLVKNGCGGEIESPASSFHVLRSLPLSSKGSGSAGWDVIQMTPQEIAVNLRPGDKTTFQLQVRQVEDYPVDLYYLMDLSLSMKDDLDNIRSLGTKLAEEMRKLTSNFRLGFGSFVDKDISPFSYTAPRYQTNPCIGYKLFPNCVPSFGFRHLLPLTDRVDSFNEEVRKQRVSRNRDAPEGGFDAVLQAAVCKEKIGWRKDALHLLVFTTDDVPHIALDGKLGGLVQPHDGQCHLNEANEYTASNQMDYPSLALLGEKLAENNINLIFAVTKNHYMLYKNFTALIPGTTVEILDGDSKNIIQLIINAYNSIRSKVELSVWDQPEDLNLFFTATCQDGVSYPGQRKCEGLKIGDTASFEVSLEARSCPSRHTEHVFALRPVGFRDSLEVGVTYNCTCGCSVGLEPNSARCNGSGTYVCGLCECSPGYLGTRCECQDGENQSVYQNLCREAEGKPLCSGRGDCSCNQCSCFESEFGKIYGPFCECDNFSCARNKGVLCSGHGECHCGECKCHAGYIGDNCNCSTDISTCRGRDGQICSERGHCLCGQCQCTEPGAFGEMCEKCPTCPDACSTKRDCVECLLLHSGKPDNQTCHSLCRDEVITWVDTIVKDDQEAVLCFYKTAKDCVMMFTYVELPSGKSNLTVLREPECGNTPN
Method: 4. Solid Phase Receptor Assay (SPRA) for αvβ5 Function
Recombinant human vitronectin (R&D Systems, 2308-VN) at 0.25 μg/mL in TBS+ buffer (25 mM Tris pH 7.4, 137 mM NaCl, 2.7 mM KCl, 1 mM CaCl2, 1 mM MgCl2, 1 mM MnCl2) was added to wells (50 μL/well) of a 96-well half-well transparent microtiter plate (Greiner 675061) and incubated overnight at 4° C. Wells were washed 3 times with 150 μL TBS+ and 150 μL of blocking buffer (TBS+ with 1% bovine serum albumin, Sigma A7906) were added. The plate was incubated for 1 hr at 37° C. and then washed 3× with TBS+ buffer. Recombinant human integrin αvβ5 (R&D Systems, 2528-AV) was diluted to 0.1 μg/mL in TBS+/0.1% bovine serum albumin. Compounds were diluted 1:100 into the integrin solution and then 50 μL added to empty wells of the washed vitronectin-coated plate according to a standard template with each sample repeated in triplicate. After incubation for two hours at room temperature, the plate was washed 3× with 150 μL of TBS+ buffer. To each well, 50 μl of biotinylated anti-αv antibody (R&D Systems, BAF1219) at 0.5 μg/mL in TBS+/0.1% BSA at 0.5 μg/mL were added and the plate covered and incubated for 1 hr at room temperature. After washing the plate 3× with 150 μL of TBS+ buffer, 50 μL of streptavidin-conjugated horseradish peroxidase (R&D Systems DY998) diluted in TBS+ blocking buffer were added to the wells and the plate incubated for 20 min at room temperature. The plate was washed 3× with TBS+ buffer followed by 50 μL of TMB substrate (Sigma T4444) added to each well and the plate incubated for 20 min at room temperature. Plates were read by colorimetric detection at 650 nm wavelength using a Tecan Safire II plate reader. Concentration-response curves were constructed by non-linear regression (best fit) analysis, and IC50 values were calculated for each compound.

[3] = biological target: Recombinant human integrin αvβ1 (Homo sapiens (Human), UniProt P05556+P06756); experiment: Solid Phase Receptor Assay (SPRA) for αvβ1 function; conditions: fibronectin-coated plate
Chain of Recombinant human integrin αvβ1 (P06756 31-992): as the sequence (P06756 31-992) above
Chain of Recombinant human integrin αvβ1 (P05556 21-728): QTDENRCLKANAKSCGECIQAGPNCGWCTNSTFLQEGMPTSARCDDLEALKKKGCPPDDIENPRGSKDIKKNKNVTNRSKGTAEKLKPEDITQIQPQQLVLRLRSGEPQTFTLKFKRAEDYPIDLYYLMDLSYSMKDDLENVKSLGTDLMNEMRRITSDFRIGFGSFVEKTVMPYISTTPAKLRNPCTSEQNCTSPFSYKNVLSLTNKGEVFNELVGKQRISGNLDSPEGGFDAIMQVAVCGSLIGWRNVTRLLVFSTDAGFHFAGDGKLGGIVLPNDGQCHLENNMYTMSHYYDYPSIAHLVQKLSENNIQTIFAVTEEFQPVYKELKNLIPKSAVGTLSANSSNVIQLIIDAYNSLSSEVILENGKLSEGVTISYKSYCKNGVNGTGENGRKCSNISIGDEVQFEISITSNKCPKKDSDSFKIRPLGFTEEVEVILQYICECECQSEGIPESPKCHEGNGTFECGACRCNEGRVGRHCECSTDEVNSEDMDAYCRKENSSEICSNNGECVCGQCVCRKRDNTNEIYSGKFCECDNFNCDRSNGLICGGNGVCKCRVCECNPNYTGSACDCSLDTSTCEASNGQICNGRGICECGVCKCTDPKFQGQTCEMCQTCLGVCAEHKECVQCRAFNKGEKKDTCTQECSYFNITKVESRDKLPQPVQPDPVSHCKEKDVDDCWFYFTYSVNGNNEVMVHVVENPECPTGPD
Method: 2. Solid Phase Receptor Assay (SPRA) for αvβ1 Function
Purified human fibronectin (R&D Systems, 1918-FN) diluted to 5 μg/mL in TBS+ buffer (25 mM Tris pH 7.4, 137 mM NaCl, 2.7 mM KCl, 1 mM CaCl2, 1 mM MgCl2, 1 mM MnCl2) was added to wells (50 μL/well) of a 96-well half-well transparent microtiter plate (Greiner 675061) and incubated overnight at 4° C. Wells were washed 3 times with 150 μL TBS+ and 150 μL of blocking buffer (TBS+ with 1% bovine serum albumin, Sigma A7906) were added. The plate was incubated for 1 hr at 37° C. and then washed 3× with TBS+ buffer. Recombinant human integrin αvβ1 (R&D Systems. 6579-AV) was diluted to 2.0 μg/mL in TBS+/0.1% bovine serum albumin. Compounds were diluted 1:100 into the integrin solution and 50 μL added to empty wells of the washed fibronectin-coated plate according to a standard template with each sample repeated in triplicate. After incubation for two hours at room temperature, the plate was washed 3× with 150 μL of TBS+ buffer. To each well, 50 μL of biotinylated anti-αv antibody (R&D Systems, BAF1219) at 1 μg/mL in TBS+/0.1% BSA were added and the plate covered and incubated for 1 hr at room temperature. After washing the plate 3× with 150 μL of TBS+ buffer, 50 μL of streptavidin-conjugated horseradish peroxidase (R&D Systems, DY998) diluted in TBS+ blocking buffer were added to the wells and the plate incubated for 20 min at room temperature. The plate was washed 3× with TBS+ buffer followed by 50 μL of TMB substrate (Sigma, T4444) added to each well and the plate incubated for 20 min at room temperature. Plates were read by colorimetric detection at 650 nm wavelength using a Tecan Safire II plate reader. Concentration-response curves were constructed by non-linear regression (best fit) analysis, and IC50 values were calculated for each compound.

Chain of Recombinant human integrin αvβ8 (P06756 31-992): as the sequence (P06756 31-992) above
Chain of Recombinant human integrin αvβ8 (P26012 43-684): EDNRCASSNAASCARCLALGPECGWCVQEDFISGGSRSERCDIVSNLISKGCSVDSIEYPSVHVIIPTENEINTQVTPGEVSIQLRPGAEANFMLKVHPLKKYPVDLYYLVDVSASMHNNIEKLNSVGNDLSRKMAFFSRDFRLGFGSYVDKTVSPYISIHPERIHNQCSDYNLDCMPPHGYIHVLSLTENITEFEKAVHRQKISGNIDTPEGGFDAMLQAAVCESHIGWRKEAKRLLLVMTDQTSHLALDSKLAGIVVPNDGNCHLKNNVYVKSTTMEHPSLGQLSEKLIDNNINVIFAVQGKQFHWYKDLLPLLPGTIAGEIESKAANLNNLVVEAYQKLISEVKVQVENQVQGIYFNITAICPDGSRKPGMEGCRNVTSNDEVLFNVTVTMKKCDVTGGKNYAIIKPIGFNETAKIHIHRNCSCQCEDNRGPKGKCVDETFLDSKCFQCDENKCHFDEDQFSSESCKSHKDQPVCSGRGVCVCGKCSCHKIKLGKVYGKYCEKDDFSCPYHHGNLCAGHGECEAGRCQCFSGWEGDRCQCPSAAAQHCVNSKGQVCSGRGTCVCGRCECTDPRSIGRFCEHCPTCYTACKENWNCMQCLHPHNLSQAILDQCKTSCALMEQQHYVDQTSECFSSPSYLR

**Q.** `O=C(O)C[C@H](NC(=O)CNC(=O)c1cc(O)cc(NC2=NCC(O)CN2)c1)c1cc(Br)cc(Br)c1` (stereo partly drawn) [Example 1, (3S)-3-(3,5-dibromophenyl)-3-(2-(3-hydroxy-5-((5-hydroxy-1,4,5,6-tetrahydropyrimidin-2-yl)amino)benzamido)acetamido)propanoic acid] was tested. Which IC50 [1] did it give?
**A.** Its IC50 is 0.3 ± 0.1 nM.

**Q.** And the IC50 [2]?
**A.** The IC50 was 0.2 nM.

**Q.** And the IC50 [3]?
**A.** Its IC50 is 2 ± 2 nM.

**Q.** For `O=C(O)C[C@H](NC(=O)CNC(=O)c1cc(O)cc(NC2=NCC(O)CN2)c1)c1cc(Br)cc(C(F)(F)F)c1` (stereo partly drawn) [Example 2, (3S)-3-(3-bromo-5-(trifluoromethyl)phenyl)-3-(2-(3-hydroxy-5-((5-hydroxy-1,4,5,6-tetrahydropyrimidin-2-yl)amino)benzamido)acetamido)propanoic acid], which IC50 [1] is on record?
**A.** The IC50 was 0.5 nM.

**Q.** What about the IC50 [2] of the same compound?
**A.** The IC50 was 0.4 nM.

**Q.** What about the IC50 [3] of the same compound?
**A.** Its IC50 is 2 nM.

**Q.** With `O=C(O)C[C@H](NC(=O)CNC(=O)c1cc(O)cc(NC2=NCC(O)CN2)c1)c1cc(Cl)cc(C(F)F)c1` (stereo partly drawn) [Example 3, (3S)-3-[3-chloro-5-(difluoromethyl)phenyl)-3-(2-(3-hydroxy-5-((5-hydroxy-1,4,5,6-tetrahydropyrimidin-2-yl)amino)benzamido)acetamido]propanoic acid] as the compound, how does the IC50 [1] read?
**A.** The IC50 was 0.3 nM.

**Q.** What about the IC50 [2] of the same compound?
**A.** Its IC50 is 0.2 nM.

**Q.** And the IC50 [3]?
**A.** Its IC50 is 2 nM.

**Q.** Which results are given for `O=C(O)C[C@H](NC(=O)CNC(=O)c1cc(O)cc(NC2=NCC(O)CN2)c1)c1cc(Br)cc(C(F)F)c1` (stereo partly drawn) [Example 4, (3S)-3-[3-bromo-5-(difluoromethyl)phenyl)-3-(2-(3-hydroxy-5-((5-hydroxy-1,4,5,6-tetrahydropyrimidin-2-yl)amino)benzamido)acetamido]propanoic acid]?
**A.** IC50 [1]: 0.4 nM; IC50 [2]: 0.4 nM; IC50 [3]: 2 nM

**Q.** Which results are given for `O=C(O)C[C@H](NC(=O)CNC(=O)c1cc(O)cc(NC2=NCC(O)CN2)c1)c1cc(Cl)cc(C(F)(F)F)c1` (stereo partly drawn) [Example 5, (3S)-3-[3-chloro-5-(trifluoromethyl)phenyl)-3-(2-(3-hydroxy-5-((5-hydroxy-1,4,5,6-tetrahydropyrimidin-2-yl)amino)benzamido)acetamido]propanoic acid]?
**A.** IC50 [1]: 0.6 nM; IC50 [2]: 0.5 nM; IC50 [3]: 2 nM

**Q.** How did the IC50 [1] turn out when `O=C(O)C[C@H](NC(=O)CNC(=O)c1cc(O)cc(NC2=NCC(O)CN2)c1)c1cc(Cl)cc(Br)c1` (stereo partly drawn) [Example 6, (3S)-3-[3-bromo-5-chloro-phenyl)-3-(2-(3-hydroxy-5-((5-hydroxy-1,4,5,6-tetrahydropyrimidin-2-yl)amino)benzamido)acetamido]propanoic acid] was run?
**A.** Its IC50 is 0.5 nM.

**Q.** What about the IC50 [2] of the same compound?
**A.** Its IC50 is 0.2 nM.

**Q.** And the IC50 [3]?
**A.** Its IC50 is 3 nM.

**Q.** What does the source list for `O=C(O)C[C@H](NC(=O)CNC(=O)c1cncc(NC2=NCC(O)CN2)c1)c1cc(Cl)cc(C(F)(F)F)c1` (stereo partly drawn) [Example 7]?
**A.** IC50 [1]: 0.4 nM; IC50 [2]: 0.2 nM; IC50 [3]: 1 nM

**Q.** Which results are given for `O=C(O)C[C@H](NC(=O)CNC(=O)c1cncc(NC2=NCC(O)CN2)c1)c1cc(Cl)cc(Br)c1` (stereo partly drawn) [Example 8, (3S)-3-(3-bromo-5-chloro-phenyl)-3-[[2-[[5-[(5-hydroxy-1,4,5,6-tetrahydropyrimidin-2-yl)amino]pyridine-3-carbonyl]amino]acetyl]amino]propanoic acid]?
**A.** IC50 [1]: 0.4 nM; IC50 [2]: 0.1 nM; IC50 [3]: 1 nM

**Q.** For `O=C(O)C[C@H](NC(=O)CNC(=O)c1cncc(NC2=NCC(O)CN2)c1)c1cc(Br)cc(C(F)(F)F)c1` (stereo partly drawn) [Example 9, (3S)-3-[3-bromo-5-(trifluoromethyl)phenyl]-3-[[2-[[5-[(5-hydroxy-1,4,5,6-tetrahydropyrimidin-2-yl)amino]pyridine-3-carbonyl]amino]acetyl]amino]propanoic acid], which IC50 [1] is on record?
**A.** The IC50 was 0.3 nM.

**Q.** What about the IC50 [2] of the same compound?
**A.** Its IC50 is 0.3 nM.

**Q.** What about the IC50 [3] of the same compound?
**A.** The IC50 was 1 nM.

**Q.** With `O=C(O)C[C@H](NC(=O)CNC(=O)c1cc(O)cc(NC2=NCC(O)CN2)c1)c1cc(C(F)(F)F)cc(C(F)(F)F)c1` (stereo partly drawn) [Example 10, (3S)-3-[3,5-bis(trifluoromethyl)phenyl)-3-(2-(3-hydroxy-5-((5-hydroxy-1,4,5,6-tetrahydropyrimidin-2-yl)amino)benzamido)acetamido]propanoic acid] as the compound, how does the IC50 [1] read?
**A.** The IC50 was 0.3 ± 0.1 nM.

**Q.** What about the IC50 [2] of the same compound?
**A.** The IC50 was 1 nM.

**Q.** What about the IC50 [3] of the same compound?
**A.** The IC50 was 2 ± 1 nM.

**Q.** `Cc1cc(Br)cc([C@H](CC(=O)O)NC(=O)CNC(=O)c2cc(O)cc(NC3=NCC(O)CN3)c2)c1` (stereo partly drawn) [Example 11, (3S)-3-[3-bromo-5-methyl-phenyl)-3-(2-(3-hydroxy-5-((5-hydroxy-1,4,5,6-tetrahydropyrimidin-2-yl)amino)benzamido)acetamido)propanoic acid] was tested. Which IC50 [1] did it give?
**A.** Its IC50 is 0.6 nM.

**Q.** And the IC50 [2]?
**A.** The IC50 was 0.3 nM.

**Q.** What about the IC50 [3] of the same compound?
**A.** Its IC50 is 0.4 nM.

**Q.** With `Cc1cc(Cl)cc([C@H](CC(=O)O)NC(=O)CNC(=O)c2cc(O)cc(NC3=NCC(O)CN3)c2)c1` (stereo partly drawn) [Example 12, (3S)-3-[3-chloro-5-methyl-phenyl)-3-(2-(3-hydroxy-5-((5-hydroxy-1,4,5,6-tetrahydropyrimidin-2-yl)amino)benzamido)acetamido)propanoic acid] as the compound, how does the IC50 [1] read?
**A.** The IC50 was 0.7 ± 0.1 nM.

**Q.** And the IC50 [2]?
**A.** Its IC50 is 0.4 nM.

**Q.** And the IC50 [3]?
**A.** The IC50 was 4 ± 2 nM.

**Q.** Which IC50 [1] does the source give for `O=C(O)C[C@H](NC(=O)CNC(=O)c1cc(O)cc(NC2=NCC(O)CN2)c1)c1cc(F)cc(Br)c1` (stereo partly drawn) [Example 13, (3S)-3-[3-bromo-5-fluoro-phenyl)-3-(2-(3-hydroxy-5-((5-hydroxy-1,4,5,6-tetrahydropyrimidin-2-yl)amino)benzamido)acetamido)propanoic acid] here?
**A.** Its IC50 is 1 ± 0.3 nM.

**Q.** And the IC50 [2]?
**A.** The IC50 was 0.1 nM.

**Q.** What about the IC50 [3] of the same compound?
**A.** Its IC50 is 1 nM.

**Q.** Which IC50 [1] does the source give for `O=C(O)C[C@H](NC(=O)CNC(=O)c1cncc(NC2=NCC(O)CN2)c1)c1cc(Br)cc(Br)c1` (stereo partly drawn) [Example 14, (3S)-3-(3,5-dibromophenyl)-3-[[2-[[5-[(5-hydroxy-1,4,5,6-tetrahydropyrimidin-2-yl)amino]pyridine-3-carbonyl]amino]acetyl]amino]propanoic acid] here?
**A.** The IC50 was 0.2 nM.

**Q.** What about the IC50 [2] of the same compound?
**A.** Its IC50 is 0.1 nM.

**Q.** What about the IC50 [3] of the same compound?
**A.** The IC50 was 0.7 nM.

**Q.** With `O=C(O)C[C@H](NC(=O)CNC(=O)c1cc(O)cc(NC2=NCC(O)CN2)c1)c1cc(Cl)cc(Cl)c1` (stereo partly drawn) [Example 15, (3S)-3-[3,5-dichloro-phenyl)-3-(2-(3-hydroxy-5-((5-hydroxy-1,4,5,6-tetrahydropyrimidin-2-yl)amino)benzamido)acetamido)propanoic acid] as the compound, how does the IC50 [1] read?
**A.** Its IC50 is 1.1 ± 0.3 nM.

**Q.** What about the IC50 [2] of the same compound?
**A.** The IC50 was 0.3 nM.

**Q.** What about the IC50 [3] of the same compound?
**A.** The IC50 was 4 ± 1 nM.
